The values that follow come from patent publication US20230002367A1, “BIFUNCTIONAL COMPOUNDS” (Hoffmann-La Roche Inc., priority 2019, published 2023).

The target in the test is T1, SMARCA2 (Homo sapiens, UniProt P51531).
T1 construct: endogenous in cells
Put plainly: SMARCA2 HiBiT degradation assay (cellular). As to conditions: for Emax: A549, Emax = amount of residual protein remaining in the cell following compound treatment; for DC50: SMARCA2 HiBiT cells, luminescence readout, 11-point titration from 10 μM, 6 hours or 16 hours, read-out: HiBit A549 SMARCA2 IP. It is filed as cell-based.

Each structure is given as a SMILES string.

T1 sequence (P51531 whole entry): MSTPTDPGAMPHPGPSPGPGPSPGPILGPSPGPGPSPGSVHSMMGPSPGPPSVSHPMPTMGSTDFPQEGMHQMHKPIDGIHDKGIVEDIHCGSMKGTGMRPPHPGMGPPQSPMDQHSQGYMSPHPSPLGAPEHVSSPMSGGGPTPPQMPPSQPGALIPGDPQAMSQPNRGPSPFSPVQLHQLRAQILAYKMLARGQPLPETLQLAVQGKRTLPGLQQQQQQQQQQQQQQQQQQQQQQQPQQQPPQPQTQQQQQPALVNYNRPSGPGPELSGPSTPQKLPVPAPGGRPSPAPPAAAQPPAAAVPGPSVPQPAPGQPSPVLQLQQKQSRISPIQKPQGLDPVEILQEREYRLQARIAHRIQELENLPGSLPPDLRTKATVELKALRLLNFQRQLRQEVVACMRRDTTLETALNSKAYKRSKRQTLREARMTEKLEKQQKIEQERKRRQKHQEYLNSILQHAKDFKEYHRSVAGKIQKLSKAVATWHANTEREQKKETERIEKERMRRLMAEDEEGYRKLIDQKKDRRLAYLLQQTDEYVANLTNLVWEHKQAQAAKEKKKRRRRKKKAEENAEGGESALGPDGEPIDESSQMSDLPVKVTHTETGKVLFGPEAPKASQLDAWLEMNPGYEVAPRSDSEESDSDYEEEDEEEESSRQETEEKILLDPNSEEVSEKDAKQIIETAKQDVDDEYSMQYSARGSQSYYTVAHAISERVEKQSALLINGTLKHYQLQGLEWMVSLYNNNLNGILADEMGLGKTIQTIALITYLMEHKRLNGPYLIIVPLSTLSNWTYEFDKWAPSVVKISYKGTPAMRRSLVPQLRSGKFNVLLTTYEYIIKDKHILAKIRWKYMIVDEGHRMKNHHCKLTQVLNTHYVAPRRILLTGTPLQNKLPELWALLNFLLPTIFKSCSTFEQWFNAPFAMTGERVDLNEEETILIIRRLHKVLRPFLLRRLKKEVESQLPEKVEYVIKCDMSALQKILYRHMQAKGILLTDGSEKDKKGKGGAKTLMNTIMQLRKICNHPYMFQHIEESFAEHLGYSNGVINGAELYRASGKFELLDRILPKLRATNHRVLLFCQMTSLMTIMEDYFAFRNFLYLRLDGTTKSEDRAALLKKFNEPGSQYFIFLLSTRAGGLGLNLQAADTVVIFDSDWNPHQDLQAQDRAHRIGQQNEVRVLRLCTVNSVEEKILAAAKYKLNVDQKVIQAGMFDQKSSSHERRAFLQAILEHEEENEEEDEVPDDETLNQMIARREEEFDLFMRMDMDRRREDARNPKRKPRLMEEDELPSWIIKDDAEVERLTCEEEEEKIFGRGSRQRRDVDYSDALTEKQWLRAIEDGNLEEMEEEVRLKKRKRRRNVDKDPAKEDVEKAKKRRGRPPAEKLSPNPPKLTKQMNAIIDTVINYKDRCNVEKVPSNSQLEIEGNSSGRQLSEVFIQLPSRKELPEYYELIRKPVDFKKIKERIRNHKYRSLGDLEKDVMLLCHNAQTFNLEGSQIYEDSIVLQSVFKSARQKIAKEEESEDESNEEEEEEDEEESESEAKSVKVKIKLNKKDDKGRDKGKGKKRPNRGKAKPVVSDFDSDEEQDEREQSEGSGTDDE

With `Cc1ncsc1-c1ccc([C@H](C)NC(=O)[C@@H]2C[C@@H](O)CN2C(=O)[C@@H](NC(=O)CCC(=O)N2CCN(CCOc3cccc(CCOc4cc(-c5ccccc5O)nnc4N)c3)CC2)C(C)(C)C)cc1` [Example 73, (2S,4R)-1-[(2S)-2-[[4-[4-[2-[3-[2-[3-amino-6-(2-hydroxyphenyl)pyridazin-4-yl]oxyethyl]phenoxy]ethyl]piperazin-1-yl]-4-oxo-butanoyl]amino]-3,3-dimethyl-butanoyl]-4-hydroxy-N-[(1S)-1-[4-(4-methylthiazol-5-yl)phenyl]ethyl]pyrrolidine-2-carboxamide], the Emax turned out to be 29% and the DC50 came to 1650 nM.

For `Cc1ncsc1-c1ccc(CNC(=O)[C@@H]2C[C@@H](O)CN2C(=O)[C@@H](NC(=O)CCCCCCCCC(=O)N2CCN(Cc3cccc(-c4cc(-c5ccccc5O)nnc4N)c3F)CC2)C(C)(C)C)cc1` [Example 74, (2S,4R)-1-[(2S)-2-[[10-[4-[[3-[3-amino-6-(2-hydroxyphenyl)pyridazin-4-yl]-2-fluoro-phenyl]methyl]piperazin-1-yl]-10-oxo-decanoyl]amino]-3,3-dimethyl-butanoyl]-4-hydroxy-N-[[4-(4-methylthiazol-5-yl)phenyl]methyl]pyrrolidine-2-carboxamide], the Emax worked out at 63% and the DC50 came to 575 nM.

With `Cc1ncsc1-c1ccc([C@H](C)NC(=O)[C@@H]2C[C@@H](O)CN2C(=O)[C@@H](NC(=O)CCCCCC(=O)N2CCN(Cc3cccc(OC4CN(c5cc(-c6ccccc6O)nnc5N)C4)c3)CC2)C(C)(C)C)cc1` [Example 83, (2S,4R)-1-[(2S)-2-[[7-[4-[[3-[1-[3-amino-6-(2-hydroxyphenyl)pyridazin-4-yl]azetidin-3-yl]oxyphenyl]methyl]piperazin-1-yl]-7-oxo-heptanoyl]amino]-3,3-dimethyl-butanoyl]-4-hydroxy-N-[(1S)-1-[4-(4-methylthiazol-5-yl)phenyl]ethyl]pyrrolidine-2-carboxamide], the Emax came to 44% and the DC50 was determined as 789 nM.

For the compound `Cc1ncsc1-c1ccc(CNC(=O)[C@@H]2C[C@@H](O)CN2C(=O)[C@@H](NC(=O)CCCCCCCCCCC(=O)N2C3CCC2CN(c2cc(-c4ccccc4O)nnc2N)C3)C(C)(C)C)cc1` [Example 84, (2S,4R)-1-[(2S)-2-[[12-[3-[3-Amino-6-(2-hydroxyphenyl)pyridazin-4-yl]-3,8-diazabicyclo[3.2.1]octan-8-yl]-12-oxo-dodecanoyl]amino]-3,3-dimethyl-butanoyl]-4-hydroxy-N-[[4-(4-methylthiazol-5-yl)phenyl]methyl]pyrrolidine-2-carboxamide], the Emax came to 38% and the DC50 came out at 902 nM.

On to `Cc1ncsc1-c1ccc(CNC(=O)[C@@H]2C[C@@H](O)CN2C(=O)[C@@H](NC(=O)CCCCCC(=O)N2C3CCC2CN(c2cc(-c4ccccc4O)nnc2N)C3)C(C)(C)C)cc1` [Example 85, (2S,4R)-1-[(2S)-2-[[7-[3-[3-Amino-6-(2-hydroxyphenyl)pyridazin-4-yl]-3,8-diazabicyclo[3.2.1]octan-8-yl]-7-oxo-heptanoyl]amino]-3,3-dimethyl-butanoyl]-4-hydroxy-N-[[4-(4-methylthiazol-5-yl)phenyl]methyl]pyrrolidine-2-carboxamide], for which the Emax worked out at 31% and the DC50 came to 2190 nM.

As to `Cc1ncsc1-c1ccc([C@H](C)NC(=O)[C@@H]2C[C@@H](O)CN2C(=O)[C@@H](NC(=O)CCCCCCCCC(=O)N2CCN(Cc3cccc(OC4CN(c5cc(-c6ccccc6O)nnc5N)C4)c3)CC2)C(C)(C)C)cc1` [Example 86, (2S,4R)-1-[(2S)-2-[[10-[4-[[3-[1-[3-amino-6-(2-hydroxyphenyl)pyridazin-4-yl]azetidin-3-yl]oxyphenyl]methyl]piperazin-1-yl]-10-oxo-decanoyl]amino]-3,3-dimethyl-butanoyl]-4-hydroxy-N-[(1S)-1-[4-(4-methylthiazol-5-yl)phenyl]ethyl]pyrrolidine-2-carboxamide], the Emax was determined as 25% and the DC50 amounted to 223 nM.

For the compound `Cc1ncsc1-c1ccc(CNC(=O)[C@@H]2C[C@@H](O)CN2C(=O)[C@@H](NC(=O)CCCCCCCN2CCN(C(=O)CN(C)Cc3ccc(-c4cc(-c5ccccc5O)nnc4N)cc3)CC2)C(C)(C)C)cc1` [Example 87, (2S,4R)-1-[(2S)-2-[8-[4-[2-[[4-[3-amino-6-(2-hydroxyphenyl)pyridazin-4-yl]phenyl]methyl-methyl-amino]acetyl]piperazin-1-yl]octanoylamino]-3,3-dimethyl-butanoyl]-4-hydroxy-N-[[4-(4-methylthiazol-5-yl)phenyl]methyl]pyrrolidine-2-carboxamide], the Emax was found to be 51% and the DC50 amounted to 1300 nM.

`Cc1ncsc1-c1ccc(CNC(=O)[C@@H]2C[C@@H](O)CN2C(=O)[C@@H](NC(=O)CCCCCCCCC(=O)NC2C3CCC2CN(c2cc(-c4ccccc4O)nnc2N)C3)C(C)(C)C)cc1` (stereo partly drawn) [Example 89, N-[3-[3-amino-6-(2-hydroxyphenyl)pyridazin-4-yl]-3-azabicyclo[3.2.1]octan-8-yl]-N′-[(1S)-1-[(2S,4R)-4-hydroxy-2-[[4-(4-methylthiazol-5-yl)phenyl]methylcarbamoyl]pyrrolidine-1-carbonyl]-2,2-dimethyl-propyl]decanediamide]: the Emax was 56% and the DC50 was 1010 nM.

For the compound `Cc1ncsc1-c1ccc([C@H](C)NC(=O)[C@@H]2C[C@@H](O)CN2C(=O)[C@@H](NC(=O)CCCCCC(=O)N2CCN(c3cccc(OC4CN(c5cc(-c6ccccc6O)nnc5N)C4)c3)CC2)C(C)(C)C)cc1` [Example 94, (2S,4R)-1-[(2S)-2-[[7-[4-[3-[1-[3-amino-6-(2-hydroxyphenyl)pyridazin-4-yl]azetidin-3-yl]oxyphenyl]piperazin-1-yl]-7-oxo-heptanoyl]amino]-3,3-dimethyl-butanoyl]-4-hydroxy-N-[(1S)-1-[4-(4-methylthiazol-5-yl)phenyl]ethyl]pyrrolidine-2-carboxamide], the Emax turned out to be 43% and the DC50 was 693 nM.

With `Cc1ncsc1-c1ccc(CNC(=O)[C@@H]2C[C@@H](O)CN2C(=O)[C@@H](NC(=O)CCCCCCCCC(=O)N[C@H]2C[C@H](Oc3cc(-c4ccccc4O)nnc3N)C2)C(C)(C)C)cc1` [Example 95, N-[3-[3-amino-6-(2-hydroxyphenyl)pyridazin-4-yl]oxycyclobutyl]-N′-[(1S)-1-[(2S,4R)-4-hydroxy-2-[[4-(4-methylthiazol-5-yl)phenyl]methylcarbamoyl]pyrrolidine-1-carbonyl]-2,2-dimethyl-propyl]decanediamide], the Emax stood at 50% and the DC50 worked out at 2440 nM.

As to `Cc1ncsc1-c1ccc([C@H](C)NC(=O)[C@@H]2C[C@@H](O)CN2C(=O)[C@@H](NC(=O)CCCCCCCCC(=O)N2CCN(c3cccc(OC4CN(c5cc(-c6ccccc6O)nnc5N)C4)c3)CC2)C(C)(C)C)cc1` [Example 96, (2S,4R)-1-[(2S)-2-[[10-[4-[3-[1-[3-amino-6-(2-hydroxyphenyl)pyridazin-4-yl]azetidin-3-yl]oxyphenyl]piperazin-1-yl]-10-oxo-decanoyl]amino]-3,3-dimethyl-butanoyl]-4-hydroxy-N-[(1S)-1-[4-(4-methylthiazol-5-yl)phenyl]ethyl]pyrrolidine-2-carboxamide], the Emax is 28% and the DC50 was 200 nM.

For `Cc1ncsc1-c1ccc(CNC(=O)[C@@H]2C[C@@H](O)CN2C(=O)[C@@H](NC(=O)CCCCCCCCC(=O)N2CCC(CNC(=O)C3(c4ccccc4)CCN(c4cc(-c5ccccc5O)nnc4N)CC3)CC2)C(C)(C)C)cc1` [Example 99, 1-[3-amino-6-(2-hydroxyphenyl)pyridazin-4-yl]-N-[[1-[10-[[(1S)-1-[(2S,4R)-4-hydroxy-2-[[4-(4-methylthiazol-5-yl)phenyl]methylcarbamoyl]pyrrolidine-1-carbonyl]-2,2-dimethyl-propyl]amino]-10-oxo-decanoyl]-4-piperidyl]methyl]-4-phenyl-piperidine-4-carboxamide], the Emax amounted to 59% and the DC50 was found to be 827 nM.

For the compound `Cc1ncsc1-c1ccc(CNC(=O)[C@@H]2C[C@@H](O)CN2C(=O)[C@@H](NC(=O)CCCCCCCCC(=O)N2CCN(c3ccc(N4CCCC(Oc5cc(-c6ccccc6N)nnc5N)C4)cc3)CC2)C(C)(C)C)cc1` (stereo partly drawn) [Example 100, (2S,4R)-1-[(2S)-2-[[10-[4-[4-[3-[3-amino-6-(2-aminophenyl)pyridazin-4-yl]oxy-1-piperidyl]phenyl]piperazin-1-yl]-10-oxo-decanoyl]amino]-3,3-dimethyl-butanoyl]-4-hydroxy-N-[[4-(4-methylthiazol-5-yl)phenyl]methyl]pyrrolidine-2-carboxamide], the Emax worked out at 62% and the DC50 was 998 nM.

For the compound `Cc1ncsc1-c1ccc([C@H](C)NC(=O)[C@@H]2C[C@@H](O)CN2C(=O)[C@@H](NC(=O)CCCCCCCCC(=O)N2CCN(C(=O)c3cccc(OC4CN(c5cc(-c6ccccc6O)nnc5N)C4)c3)CC2)C(C)(C)C)cc1` [Example 101, (2S,4R)-1-[(2S)-2-[[10-[4-[3-[1-[3-amino-6-(2-hydroxyphenyl)pyridazin-4-yl]azetidin-3-yl]oxybenzoyl]piperazin-1-yl]-10-oxo-decanoyl]amino]-3,3-dimethyl-butanoyl]-4-hydroxy-N-[(1S)-1-[4-(4-methylthiazol-5-yl)phenyl]ethyl]pyrrolidine-2-carboxamide], the Emax came out at 38% and the DC50 came to 101 nM.

On to `Cc1ncsc1-c1ccc(CNC(=O)[C@@H]2C[C@@H](O)CN2C(=O)[C@@H](NC(=O)CCCCCCCCCC(=O)N2CCN(Cc3cccc(N4C5CCC4CN(c4cc(-c6ccccc6N)nnc4N)C5)c3)CC2)C(C)(C)C)cc1` [Example 102, (2S,4R)-1-[(2S)-2-[[11-[4-[[3-[3-[3-amino-6-(2-aminophenyl)pyridazin-4-yl]-3,8-diazabicyclo[3.2.1]octan-8-yl]phenyl]methyl]piperazin-1-yl]-11-oxo-undecanoyl]amino]-3,3-dimethyl-butanoyl]-4-hydroxy-N-[[4-(4-methylthiazol-5-yl)phenyl]methyl]pyrrolidine-2-carboxamide], for which the Emax is 59% and the DC50 came out at 992 nM.

As usually defined, the Emax is the greatest response seen or fitted, relative to the assay's reference.
